Measured values published in US20140018316A1, “OPHTHALMIC PHARMACEUTICAL COMPOSITION” (Hayashibara Co., Ltd., priority 2005, published 2014).

System: pig lens
Assay: Swelling and cloudiness of extracted pig lenses soaked in test or control solutions (traumatic cataract model)
Set-up: key to degree of cloudiness in the lens (relative value): relative gray-scale density; uninjured lens in saline at start = 10
Procedure: Using an injured pig lens employed as a model for traumatic cataract, the influence of cyclic tetrasaccharide on the cloudiness in the lens was experimented as follows: A test solution was previously prepared by dissolving a cyclic tetrasaccharide crystal, penta hydrate, which had been prepared by the method in the later described Reference for Example 2, in physiological saline into a physiological saline containing 100 mM cyclic tetrasaccharide. As a positive control, a physiological saline containing 100 mM α,α-trehalose, a reagent grade specimen, commercialized by Hayashibara Biochemical Laboratories, Inc., Okayama, Japan, was used; andasanegativecontrol, physiological saline was used. Two milliliter aliquots of any one of the above three kinds of aqueous solutions were added to every two wells in respective commercialized 24-well culture plates. In one of the two wells containing the same kind of solution in each plate was placed a pig lens, which had been obtained from a slaughter-house, extracted by incision within three hours after the obtention and without injuring, and washing the extracted lens with physiological saline; while in the other of the two wells was placed a pig lens, which had been prepared by the same procedure as in the above but injured with a 27-gauge injection needle (commercialized by Terumo Co., Tokyo, Japan) to form an injured line, about one millimeter in length. These lens were allowed to stand at ambient temperature and macroscopically and microscopically observed their change in the degree of cloudiness and in the shape of swelling, etc. This experiment was run in a triplicate manner, and the macroscopic and microscopic observations were done just after (0), 1 hour, 2 hours, 6 hours, and 24 hours after the lenses were placed in the wells, and then observed daily over 28 days. A similar experiment was further conducted using a physiological saline containing 75 mM, 50 mM, 20 mM, 10 mM, or 1 mM cyclic tetrasaccharide and a lens that had not been injured with the injection needle. The degree of cloudiness in each lens, observed with “STEREOMICROSCOPE SZX12”, a product name of a stereomicroscope commercialized by Olympus Co., Tokyo, Japan, was expressed by photographing a transmitted light image of each lens with “PENGUIN 150CL”, a digital camera commercialized by Pixela Co., Tokyo, Japan, capturing the transmitted image by a computer using a view finder commercialized by Olympus Co., Tokyo, Japan, and expressing numerically the degree of light and shade of the captured image as a gray-scale using “Scion Image for Windows Beta 4.0.2”, a software commercialized by Scion Co., Maryland, U.S.A., to obtain a mean density for each lens. The time course change in the degree of cloudiness in each lens placed in each solution was expressed with a relative value, regarding the degree of cloudiness, just after the lens free of injury had been placed in physiological saline, as 10. The change of cloudiness and swelling are respectively in Tables 1 and 2. In Table 1, there show only the results from time 0 hour through two days and from days 7, 14 and 28.

[1] = 1 mM in physiological saline, no injury, 28 days
[2] = 10 mM in physiological saline, no injury, 28 days
[3] = 20 mM in physiological saline, no injury, 28 days
[4] = pig lens in physiological saline

OCC1OC2OCC3O[C@H](O[C@H]4C(O)C(CO)OC(OCC5O[C@H](O[C@@H](C1O)C2O)C(O)C(O)[C@@H]5O)C4O)C(O)C(O)[C@@H]3O (stereo partly drawn) [Test solution, cyclo{→6)-α-D-glucopyranosyl-(1→3)-α-D-glucopyranosyl-(1→6)-α-D-glucopyranosyl-(1→3)-α-D-glucopyranosyl-(1→}] was tested, and the “degree of cloudiness in the lens (relative value)” value (“degree … (relative value)” below) (1 mM in physiological saline, no injury, 1 hour) was 11, the “degree … (relative value)” value (1 mM in physiological saline, no injury, 2 hours) was 12 and the “degree … (relative value)” value (1 mM in physiological saline, no injury, 6 hours) was 11. The “degree … (relative value)” value (1 mM in physiological saline, no injury, 24 hours) was 12, the “degree … (relative value)” value (1 mM in physiological saline, no injury, 2 days) was 14 and the “degree … (relative value)” value (1 mM in physiological saline, no injury, 7 days) was 55. The “degree … (relative value)” value (1 mM in physiological saline, no injury, 14 days) was 61, the “degree … (relative value)” value [1] was 85 and the “swelling of the lens” value [1] was “◯ (swelling was observed)”. For the same molecule, the “degree … (relative value)” value (1 mM in physiological saline, no injury, time 0) was 10, the “degree … (relative value)” value (10 mM in physiological saline, no injury, 1 hour) was 12 and the “degree … (relative value)” value (10 mM in physiological saline, no injury, 2 hours) was 11. For the same molecule, the “degree … (relative value)” value (10 mM in physiological saline, no injury, 6 hours) was 12, the “degree … (relative value)” value (10 mM in physiological saline, no injury, 24 hours) was 11 and the “degree … (relative value)” value (10 mM in physiological saline, no injury, 2 days) was 13. The “degree … (relative value)” value (10 mM in physiological saline, no injury, 7 days) was 49, the “degree … (relative value)” value (10 mM in physiological saline, no injury, 14 days) was 59 and the “degree … (relative value)” value [2] was 87. For the same molecule, the “swelling of the lens” value [2] was “◯ (swelling was observed)”, the “degree … (relative value)” value (10 mM in physiological saline, no injury, time 0) was 10 and the “degree … (relative value)” value (20 mM in physiological saline, no injury, 1 hour) was 11. The “degree … (relative value)” value (20 mM in physiological saline, no injury, 2 hours) was 12, the “degree … (relative value)” value (20 mM in physiological saline, no injury, 6 hours) was 12 and the “degree … (relative value)” value (20 mM in physiological saline, no injury, 24 hours) was 12. The “degree … (relative value)” value (20 mM in physiological saline, no injury, 2 days) was 14, the “degree … (relative value)” value (20 mM in physiological saline, no injury, 7 days) was 51 and the “degree … (relative value)” value (20 mM in physiological saline, no injury, 14 days) was 60. The “degree … (relative value)” value [3] was 71, the “swelling of the lens” value [3] was “◯ (swelling was observed)” and the “degree … (relative value)” value (20 mM in physiological saline, no injury, time 0) was 10. The “cloudiness in the lens (in words)” value (20 mM, 10 mM or 1 mM, lenses with no injury, from seven days) was “cloudiness was observed throughout the lenses”, the “swelling of the lens (in words)” value (20 mM, 10 mM or 1 mM, lenses with no injury, until 14 days) was “No swelling of the lenses was observed” and the “degree … (relative value)” value (50 mM in physiological saline, no injury, 1 hour) was 11. The “degree … (relative value)” value (50 mM in physiological saline, no injury, 2 hours) was 12, the “degree … (relative value)” value (50 mM in physiological saline, no injury, 6 hours) was 12 and the “degree … (relative value)” value (50 mM in physiological saline, no injury, 24 hours) was 12. The “degree … (relative value)” value (50 mM in physiological saline, no injury, 2 days) was 13, the “degree … (relative value)” value (50 mM in physiological saline, no injury, 7 days) was 15 and the “degree … (relative value)” value (50 mM in physiological saline, no injury, 14 days) was 20. For the same molecule, the “degree … (relative value)” value (50 mM in physiological saline, no injury, 28 days) was 28, the “degree … (relative value)” value (50 mM in physiological saline, no injury, time 0) was 10 and the “degree … (relative value)” value (75 mM in physiological saline, no injury, 1 hour) was 11. For the same molecule, the “degree … (relative value)” value (75 mM in physiological saline, no injury, 2 hours) was 12, the “degree … (relative value)” value (75 mM in physiological saline, no injury, 6 hours) was 12 and the “degree … (relative value)” value (75 mM in physiological saline, no injury, 24 hours) was 12. For the same molecule, the “degree … (relative value)” value (75 mM in physiological saline, no injury, 2 days) was 12, the “degree … (relative value)” value (75 mM in physiological saline, no injury, 7 days) was 14 and the “degree … (relative value)” value (75 mM in physiological saline, no injury, 14 days) was 21. The “degree … (relative value)” value (75 mM in physiological saline, no injury, 28 days) was 29, the “degree … (relative value)” value (75 mM in physiological saline, no injury, time 0) was 10 and the “swelling of the lens (in words)” value (75 mM or 50 mM, lenses with no injury, until 28 days) was “No swelling was observed”. The “degree … (relative value)” value (100 mM in physiological saline, injured lens, 1 hour) was 10, the “degree … (relative value)” value (100 mM in physiological saline, injured lens, 2 hours) was 10 and the “degree … (relative value)” value (100 mM in physiological saline, injured lens, 6 hours) was 12. The “degree … (relative value)” value (100 mM in physiological saline, injured lens, 24 hours) was 12, the “degree … (relative value)” value (100 mM in physiological saline, injured lens, 2 days) was 12 and the “degree … (relative value)” value (100 mM in physiological saline, injured lens, time 0) was 10. For the same molecule, the “degree … (relative value)” value (100 mM in physiological saline, no injury, 1 hour) was 13, the “degree … (relative value)” value (100 mM in physiological saline, no injury, 2 hours) was 12 and the “degree … (relative value)” value (100 mM in physiological saline, no injury, 6 hours) was 12. The “degree … (relative value)” value (100 mM in physiological saline, no injury, 24 hours) was 12, the “degree … (relative value)” value (100 mM in physiological saline, no injury, 2 days) was 11 and the “degree … (relative value)” value (100 mM in physiological saline, no injury, 7 days) was 12. The “degree … (relative value)” value (100 mM in physiological saline, no injury, 14 days) was 15, the “degree … (relative value)” value (100 mM in physiological saline, no injury, 28 days) was 15 and the “degree … (relative value)” value (100 mM in physiological saline, no injury, time 0) was 10. For the same molecule, the “swelling of the lens (in words)” value (100 mM, injured lens, 2 days after initiating observation) was “the swelling of the lens was not observed”, the “cloudiness in the lens (in words)” value (100 mM, injured lens, after 2 days) was “partial cloudiness only at the injured site” and the “swelling of the lens (in words)” value (100 mM, lenses with no injury, on 28 days) was “no swelling”. For the same molecule, the “concentration with a satisfactory swelling-inhibitory-effect on the lens” value [4] was no less than 1 mM and the “concentration with an action of inhibiting the swelling and cloudiness in the lens and maintaining transparency” value [4] was no less than 50 mM.
